“Also recorded” adds a separate entry of the source.
Assays:
[1] = tested on: P-glycoprotein enriched membrane vesicles; details: multidrug resistant cell vesicles; cited from earlier work
P-glycoprotein = details: cited from earlier work
mitochondrial function = details: typical loading activities; cited from earlier work
cells and mitochondria = details: cited from earlier work
tumors = details: human, in vivo; cited from earlier work
V79 and LZ cells = test: Cell survival / cytotoxicity, V79 and LZ cells (sulforhodamine B); assay type: cell-based, hamster; details: 72 hours
Procedure: (§1) FIG. 5. Cell survival studies and LD50 determination showing cytotoxicity of a ^99 Tc-isonitrile complex that is transported by the P-glycoprotein in vitro. Survival of parental V79 and multidrug resistant LZ cells (A) and parental Alex and multidrug resistant Alex/A.5 cells (B) in increasing concentrations of carrier-added ^99 Tc-MIBI. Methods: Cell survival assays were performed by plating 4,000-20,000 cells per well in 96 well microtiter plates in triplicate in three separate experiments. V79 and LZ cells were grown essentially as described in Example 2 while Alex and Alex/A.5 were grown as described by Goldstein, L., et al., J. Natl. Cancer Inst. 81:116 (1989). Multidrug resistant cells were cultured in drug free media for 72-96 hours prior to culture in ^99 Tc-MIBI. Surviving cells were assayed by staining with sulforhodamine B (Mazzanti, R., et al., J. Cell Pharmacol. 1:50 (1990)) at 72 hours for V79 and LZ cells or 96 hours for Alex and Alex A.5 cells. Survival was expressed as the percentage of surviving cells relative to growth in alpha-MEM media without ^99 Tc-MIBI. […] LD50 determinations were obtained by interpolation from the cell survival curves.
(§2) Micromolar concentrations of carrier-added 99Tc-MIBI is shown to be cytotoxic in hamster lung fibroblast cells (A) and human carcinoma cells (B) (FIG. 5). […]

[2] = tested on: V79 cells (multidrug resistance P-glycoprotein)
Procedure: (§3) Accumulation of Tc-MIBI in LZ cells (highly expressing multidrug resistance) (0) and V79 cells (modestly expressing multidrug resistance) (.cndot.).
(§4) Cell-associated activity was then determined.

[3] = tested on: LZ cells (multidrug resistance P-glycoprotein)
Procedure: as §3, §4

Alex and Alex/A.5 cells = test: Cell survival / cytotoxicity, Alex and Alex/A.5 cells (sulforhodamine B); assay type: cell-based, human
Procedure: as §1, §2

[4] = whole body imaging agent; cited from earlier work

For `CC[C@]1(O)C[C@@H]2CN(CCc3c([nH]c4ccccc34)[C@@](C(=O)OC)(c3cc4c(cc3OC)N(C)[C@H]3[C@@](O)(C(=O)OC)[C@H](OC(C)=O)[C@]5(CC)C=CCN6CC[C@]43[C@@H]65)C2)C1` [vinblastine], the “Inhibition of labeled vinblastine accumulation in vesicles” value [1] is given as “inhibited”.
For `COc1cccc2c1C(=O)c1c(O)c3c(c(O)c1C2=O)C[C@@](O)(C(C)=O)C[C@@H]3O[C@H]1C[C@H](N)[C@H](O)[C@H](C)O1` [daunomycin], the “Inhibition of photoaffinity labeling of P-glycoprotein by vinblastine analog” value (P-glycoprotein) is given as “inhibited”.
For `COC(=O)c1ccccc1-c1c2ccc(=N)cc-2oc2cc(N)ccc12` [rhodamine 123], the “Toxic effects on mitochondrial function” value (mitochondrial function) is given as “toxic effects on mitochondrial function” and the “Toxicity to cells and mitochondria” value (cells and mitochondria) is given as “toxic to cells and mitochondria”.
For `[99Tc].[C-]#[N+]CC(C)(C)OC.[C-]#[N+]CC(C)(C)OC.[C-]#[N+]CC(C)(C)OC.[C-]#[N+]CC(C)(C)OC.[C-]#[N+]CC(C)(C)OC.[C-]#[N+]CC(C)(C)OC` [Tc-MIBI, hexakis (2-methoxyisobutyl isonitrile) technetium-99m (I)], the “Uptake within known bronchial carcinomas” value (tumors) is listed as “uptake”, the “Uptake within mediastinal and pulmonary metastasis from thyroid cancer” value (tumors) is listed as “uptake” and the “Uptake within untreated malignant lung lesions” value (tumors) is listed as “uptake”. For the same molecule, the “Toxicity in drug-sensitive V79 compared to multidrug-resistant derivative (LZ)” value (V79 and LZ cells; V79 vs LZ) was 11 fold, the “Cytotoxicity in hamster lung fibroblast cells” value (V79 and LZ cells; micromolar concentrations, carrier-added) was “cytotoxic” and the “Plateau net accumulation in V79 cells relative to LZ cells” value [2] was 20 fold. The “Net accumulation of Tc-MIBI” value [3] was 0.3 fmoles Tc-MIBI/mg protein per nmolar extracellular Tc-MIBI, the “Toxicity in drug-sensitive human Alexander cells compared to multidrug-resistant derivative (Alex/A.5)” value (Alex and Alex/A.5 cells; Alex vs Alex/A.5, 96 hours) was 13 fold and the “Cytotoxicity in human carcinoma cells” value (Alex and Alex/A.5 cells; micromolar concentrations, carrier-added, 96 hours) was “cytotoxic”. The “Toxic activity at imaging doses” value [4] was “no toxic activity; also recorded: without chemotoxic effects”.
In the case of `c1ccc([P+](c2ccccc2)(c2ccccc2)c2ccccc2)cc1` [TPP^+], the “Toxic effects on mitochondrial function” value (mitochondrial function) is listed as “toxic effects on mitochondrial function”.
For `CC[C@]1(O)C[C@H]2CN(CCc3c([nH]c4ccccc34)[C@@](C(=O)OC)(c3cc4c(cc3OC)N(C=O)[C@H]3[C@@](O)(C(=O)OC)[C@H](OC(C)=O)[C@]5(CC)C=CCN6CC[C@]43[C@@H]65)C2)C1` [vincristine], the “Inhibition of photoaffinity labeling of P-glycoprotein by vinblastine analog” value (P-glycoprotein) is given as “inhibited” and the “Inhibition of labeled vinblastine accumulation in vesicles” value [1] is given as “inhibited”.
In the case of `CCOC(=O)C1=C(C)NC(C)=C(C(=O)OCCNC(=O)c2ccc(N=[N+]=[N-])cc2)C1c1ccccc1C(F)(F)F` (centres unmarked) [azidopine], the “Inhibition of photoaffinity labeling of P-glycoprotein by vinblastine analog” value (P-glycoprotein) is given as “inhibited”.
In the case of `COC(=O)[C@H]1[C@H]2C[C@@H]3c4[nH]c5cc(OC)ccc5c4CCN3C[C@H]2C[C@@H](OC(=O)c2cc(OC)c(OC)c(OC)c2)[C@@H]1OC` [reserpine], the “Inhibition of photoaffinity labeling of P-glycoprotein by vinblastine analog” value (P-glycoprotein) is given as “inhibited”.
In the case of `C=C[C@H]1C[N@@]2CC[C@H]1C[C@@H]2[C@@H](O)c1ccnc2ccc(OC)cc12` [Quinidine], the “Inhibition of photoaffinity labeling of P-glycoprotein by vinblastine analog” value (P-glycoprotein) is listed as “inhibited”.

— patent publication US5403574A, “Evaluation and treatment of the multidrug resistance phenotype” (priority 1992, dated 1995)
